Source: patent US4822796A, “1-((Phenothiazin-10-yl)alkyl)-alpha-phenyl-4-piperidinemethanols and pharmaceutical use” (priority 1987, dated 1989)

How the values were obtained:
[1] = modified phenyl-p-quinone writhing assay in mice (analgesia); assay type: in vivo, mice (male, Charles River, CD-1)
Description: The procedure employed to determine analgesic utility is a modification of the phenyl-p-quinone writhing assay in mice, a standard assay for analgesia [Proc. Soc. Exptl. Bio. Med., 95 729 (1957)]. In the modified procedure phenyl-p-benzoquinone (Eastman, 12.5 mg) is dissolved in 5 ml of 95% ethanol and the solution is diluted to a total volume of 100 ml with distilled water. The solution is administered to the subject mice […] at a dose of 10 ml per kg of body weight. A characteristic "writh", an inward rotation of one or more feet with twisting and turning of the trunk, drawing in of the abdominal wall, lordosis and arching of the back, is produced.
A total of 28 male mice (Charles River, CD-1), weighing 18 to 30 grams, are employed for a time response. The subject animals receive food and water ad libitum. Test compounds are dissolved in distilled water, or suspended in distilled water containing one drop of a suitable surfactant, such as Tween-80.
Four groups of five animals (20 animals) are given the test compound subcutaneously at 15, 30, 45 and 60 minutes prior to administration of the phenyl-p-quinone. Four control groups of 2 animals (8 animals) receive an equal volume of the vehicle. […] The number of writhes for each animal is recorded. […]

[2] = climbing mice assay (antipsychotic activity; inhibition of apomorphine induced climbing); assay type: in vivo, mice (CK-1 male); details: Mus musculus, ip, 30 minutes prior to apomorphine 1.5 mg/kg s.c., read-out: Anti-Psychotic Activity (ED50), 50% inhibition of apomorphine induced climbing
Text: The subject CK-1 male mice (23-27 grams) are group-housed under standard laboratory conditions. The mice are individually placed in wire mesh stick cages (4"×4" by 10") and are allowed one hour for adaptation and exploration of the new environment.
Mice consistently climbing before the injection of apomorphine are discarded.
With full-developed apomorphine climbing, the animals are hanging onto the cage walls, rather motionless, over longer periods of time. By contrast, climbs due to mere motor stimulation usually last only a few seconds.

SMILES | Analgesic Activity (% Inhibition of Writhing) ([1]; at 1.3 mg/kg sc, standard) [%] | ED50 [2] [mg/kg] | Analgesic Activity (% Inhibition of Writhing) ([1]; at 20 mg/kg, subcutaneous (route per method)) [%]
CC(C)=CCN1CCC2(C)c3cc(O)ccc3CC1C2C (stereo not shown) [Pentazocine] | 50 |  | 
CSc1ccc2c(c1)N(CCC1CCCCN1C)c1ccccc1S2 (stereo not shown) [Thioridazine] |  | 4.1 | 
CSc1ccc2c(c1)N(CCCN1CCC(C(O)c3ccc(F)cc3)CC1)c1ccccc1S2 (stereo not drawn) [α-(4-Fluorophenyl)-1-[3-(2-methylthiophenothiazin-10-yl)propyl]-4-piperidinemethanol] |  | 8.6 | 43
